Data taken from patent publication US20230248702A1, “MICELLE COMPRISING BENZIMIDAZOLE-CARBOHYDRATE CONJUGATE COMPOUND, PREPARATION METHOD THEREOF AND USE THEREOF AS ANTICANCER AGENT OR ANTIVIRAL AGENT COMPRISING THE SAME” (BIOMETRIX TECHNOLOGY INC., priority 2021, published 2023).

Assays:
[1] = tested on: cancer cell lines (pancreatic cancer cell line ASPC-1, lung cancer cell line A549, breast cancer cell line MCF-7, colorectal cancer cell line HCT 116); experiment: Test for inhibition of growth of cancer cell lines (WST-8 cell viability assay); format: cell-based, humans
Description: Pancreatic cancer cell lines ASPC-1, lung cancer cell lines A549, breast cancer cell lines MCF-7, and colorectal cancer cell lines HCT 116 of humans were distributed by Korean Cell Line Bank (KCLB, Seoul in Korea) and grown using culture media. Fetal bovine serum (FBS), 0.1 mM MEM nonessential amino acid (NEAA), 2 mM L-glutamine, and 1 % of penicillin-streptomycin were treated with trypsin every two-three days in a humidified cell culture incubator containing 5 % of CO2 at 37° C. by using DMEM and a 10 % culture flask according to guidelines provided by the KCLB, to subculture cells. […] After 24 hours, each of the nine sorts of compounds in table 2 was added to the well under six concentration conditions and was incubated for 24 hours. After the incubation, the culture medium was thrown away, and cell viability in each well was measured according to an instruction of the manufacturer, using a WST-8 cell viability assay kit (Quanti-MaxTM, BIOMAX). The analysis used the principle that the dehydrogenase of living cells decomposes tetrazolium salt to generate formazan, and based on this, the living cells were quantitatively evaluated. Reduced formazan dye (formazan salt) is soluble in the cell culture medium, and the amount of formazan (formazan) was measured using the direct proportionality to the number of viable cells.

[2] = tested on: normal lung cell lines MRC-5; experiment: Test for toxicity on normal cell lines (WST-8 cell viability assay); format: cell-based; conditions: rating relative to doxorubicin, 0-50 µM, incubated for 24 hours
Description: Normal lung cell lines MRC-5 were distributed by Korean Cell Line Bank (KCLB, Seoul in Korea) and grown using a complete culture medium. Fetal bovine serum (FBS), 0.1 mM MEM nonessential amino acid (NEAA), 2 mM L-glutamine, and 1 % of penicillin-streptomycin were treated with trypsin every two-three days in a humidified cell culture incubator containing 5 % of CO2 at 37° C. by using DMEM and a 10 % culture flask according to guidelines provided by the KCLB, to subculture cells. The culture was incubated until it reached 80-90 % confluence, and the cells continuously moved to the culture flask for a test of inhibition of growth of cancer cell lines.
The normal cell lines (MRC-5) were seeded in 96-well plates at about 7,000 cells per well. […]
After the incubation, the culture medium was thrown away, and cell viability in each well was measured according to an instruction of the manufacturer, using a WST-8 cell viability assay kit (Quanti-MaxTM, BIOMAX).
The analysis used the principle that the dehydrogenase of living cells decomposes tetrazolium salt to generate formazan, and based on this, the living cells were quantitatively evaluated. Reduced formazan dye (formazan salt) is soluble in the cell culture medium, and the amount of formazan (formazan) was measured using the direct proportionality to the number of viable cells.

For `CCCSc1ccc2nc(NC3O[C@H](CO)[C@@H](O)[C@H](O)[C@H]3O)[nH]c2c1` (stereo partly drawn) [Albendazole-glucose conjugate (Al-G), 6-(propylthio)-1H-benzoimidazol-2-aminoglucose], the “Test for inhibition of growth of cancer cell line” value ([1]; rating relative to doxorubicin, 0-50 µM, incubated for 24 hours) was “C (a C rating denotes a very weak quality (10 times or more))” and the “Test for toxicity on normal cell line” value [2] was “AAA (an AAA rating denotes no toxicity (1/30 times or less))”.

In the case of `COc1cccc2c1C(=O)c1c(O)c3c(c(O)c1C2=O)C[C@@](O)(C(=O)CO)C[C@@H]3O[C@H]1C[C@H](N)[C@H](O)[C@H](C)O1` [doxorubicin, reference compound], the “total number of cancer cells remained within 24 hours” value ([1]; concentrations of Table 2 (0-50 µM), 24 hours) is reported as ≥ 70%.
